# Reference: article PMC3382171 (PLoS ONE, 2012)
# What was measured:
# Assay in all cases: biochemical
# ZAP70 = ZAP70 (Homo sapiens, UniProt P43403); design: gene ZAP70; conditions: read-out: Upstate KSS % inhibition at 1uM
# Protocol: In these selectivity assays the concentration of ATP was set to the Km value of ATP for each kinase tested to allow for a relative potency comparison between the various kinases. The compounds were tested at 1 µM final concentration. […] (A) Kinase selectivity screen (KSS) performed at Upstate Biotechnology. […] (B) KSS performed at University of Dundee (Division of Signal Transduction Therapy). […] (PDF) Click here for additional data file.
# RSK2 = biological target: T1, RSK2 (Homo sapiens, UniProt P51812); design: University of Dundee kinase panel, percent inhibition of phosphorylation at 1 uM RAFi, ATP at Km; conditions: read-out: Dundee KSS %inh at 1 uM
# T1 construct: gene RPS6KA3
# Protocol: (§1) The METi and RAFi were screened against kinase panels (SelectScreen, Invitrogen; University of Dundee, Division of Signal Transduction Therapy, UK; Upstate Biotechnology/Millipore, Billerica, MA). In these selectivity assays the concentration of ATP was set to the Km value of ATP for each kinase tested to allow for a relative potency comparison between the various kinases. The compounds were tested at 1 µM final concentration. […] Supplementary file pone.0039653.s002.pdf: Figure S2 Kinase Selectivity Screen of RAFi. (A) Kinase selectivity screen (KSS) performed at University of Dundee (Division of Signal Transduction Therapy). Values in % inhibition of phosphorylation given 1 µM of RAFi compared to control. (B) KSS performed at Invitrogen (Selectscreen Service) compared to control. Values in % inhibition of phosphorylation given 1 µM of RAFi. (C) Cell based dose response kinase inhibition of indicated kinases by RAFi. (PDF) Click here for additional data file.
# CaMK1a = biological target: T2, CaMK1a (Homo sapiens, UniProt Q14012); design: University of Dundee kinase panel, percent inhibition of phosphorylation at 1 uM RAFi, ATP at Km; conditions: read-out: Dundee KSS %inh at 1 uM
# T2 construct: gene CAMK1
# Protocol: as §1
# CSK = CSK (Homo sapiens, UniProt P41240); design: University of Dundee kinase panel, percent inhibition of phosphorylation at 1 uM RAFi, ATP at Km; conditions: read-out: Dundee KSS %inh at 1 uM
# Protocol: as §1
# PBK = PBK (Homo sapiens, UniProt Q96KB5); design: University of Dundee kinase panel, percent inhibition of phosphorylation at 1 uM RAFi, ATP at Km; conditions: read-out: Dundee KSS %inh at 1 uM
# Protocol: as §1
# mouse LCK = mouse LCK (Mus musculus, UniProt P06240); design: University of Dundee kinase panel, percent inhibition of phosphorylation at 1 uM RAFi, ATP at Km; conditions: read-out: Dundee KSS %inh at 1 uM
# Protocol: as §1
# MLCK = biological target: T3, MLCK (Homo sapiens, UniProt Q15746); design: University of Dundee kinase panel, percent inhibition of phosphorylation at 1 uM RAFi, ATP at Km; conditions: read-out: Dundee KSS %inh at 1 uM
# T3 construct: gene MYLK
# Protocol: as §1
# MST2 = biological target: T4, MST2 (Homo sapiens, UniProt Q13188); design: University of Dundee kinase panel, percent inhibition of phosphorylation at 1 uM RAFi, ATP at Km; conditions: read-out: Dundee KSS %inh at 1 uM
# T4 construct: gene STK3
# Protocol: as §1
# MNK2 = biological target: T5, MNK2 (Homo sapiens, UniProt Q9HBH9); design: University of Dundee kinase panel, percent inhibition of phosphorylation at 1 uM RAFi, ATP at Km; conditions: read-out: Dundee KSS %inh at 1 uM
# T5 construct: gene MKNK2
# Protocol: as §1
# rat MNB = biological target: T6, rat MNB (Rattus norvegicus, UniProt Q63470); design: University of Dundee kinase panel, percent inhibition of phosphorylation at 1 uM RAFi, ATP at Km; conditions: read-out: Dundee KSS %inh at 1 uM
# T6 construct: gene Dyrk1a
# Protocol: as §1
# PLK1preactivated = biological target: T7, PLK1preactivated (Homo sapiens, UniProt P53350); design: University of Dundee kinase panel, percent inhibition of phosphorylation at 1 uM RAFi, ATP at Km; conditions: read-out: Dundee KSS %inh at 1 uM
# T7 construct: gene PLK1
# Protocol: as §1
# AKT2 = AKT2 (Homo sapiens, UniProt P31751); design: University of Dundee kinase panel, percent inhibition of phosphorylation at 1 uM RAFi, ATP at Km; conditions: read-out: Dundee KSS %inh at 1 uM
# Protocol: as §1
# rat RSK1 = biological target: T8, rat RSK1 (Rattus norvegicus, UniProt Q63531); design: University of Dundee kinase panel, percent inhibition of phosphorylation at 1 uM RAFi, ATP at Km; conditions: read-out: Dundee KSS %inh at 1 uM
# T8 construct: gene Rps6ka1
# Protocol: as §1
# SGK = biological target: T9, SGK (Homo sapiens, UniProt O00141); design: University of Dundee kinase panel, percent inhibition of phosphorylation at 1 uM RAFi, ATP at Km; conditions: read-out: Dundee KSS %inh at 1 uM
# T9 construct: gene SGK1
# Protocol: as §1
# DYRK2 = biological target: T10, DYRK2 (Homo sapiens, UniProt Q92630); design: University of Dundee kinase panel, percent inhibition of phosphorylation at 1 uM RAFi, ATP at Km; conditions: read-out: Dundee KSS %inh at 1 uM
# T10 sequence (Q92630 1-601): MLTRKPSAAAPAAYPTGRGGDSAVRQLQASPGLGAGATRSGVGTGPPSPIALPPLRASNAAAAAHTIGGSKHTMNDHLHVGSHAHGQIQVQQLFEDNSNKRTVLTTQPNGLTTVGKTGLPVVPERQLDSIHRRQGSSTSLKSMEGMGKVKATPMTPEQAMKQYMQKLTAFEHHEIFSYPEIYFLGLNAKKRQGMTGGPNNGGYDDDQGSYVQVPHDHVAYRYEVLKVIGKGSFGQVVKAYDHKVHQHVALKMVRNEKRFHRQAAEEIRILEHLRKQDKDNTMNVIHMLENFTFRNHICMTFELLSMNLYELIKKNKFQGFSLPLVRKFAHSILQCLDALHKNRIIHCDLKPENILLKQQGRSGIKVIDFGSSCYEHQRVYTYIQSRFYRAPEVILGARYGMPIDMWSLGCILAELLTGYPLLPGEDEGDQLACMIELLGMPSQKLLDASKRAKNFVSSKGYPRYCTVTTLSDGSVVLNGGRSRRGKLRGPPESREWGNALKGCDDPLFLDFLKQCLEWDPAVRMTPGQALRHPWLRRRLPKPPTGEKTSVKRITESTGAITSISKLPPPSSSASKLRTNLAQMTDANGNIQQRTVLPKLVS
# Protocol: as §1
# T9 sequence (O00141 whole entry): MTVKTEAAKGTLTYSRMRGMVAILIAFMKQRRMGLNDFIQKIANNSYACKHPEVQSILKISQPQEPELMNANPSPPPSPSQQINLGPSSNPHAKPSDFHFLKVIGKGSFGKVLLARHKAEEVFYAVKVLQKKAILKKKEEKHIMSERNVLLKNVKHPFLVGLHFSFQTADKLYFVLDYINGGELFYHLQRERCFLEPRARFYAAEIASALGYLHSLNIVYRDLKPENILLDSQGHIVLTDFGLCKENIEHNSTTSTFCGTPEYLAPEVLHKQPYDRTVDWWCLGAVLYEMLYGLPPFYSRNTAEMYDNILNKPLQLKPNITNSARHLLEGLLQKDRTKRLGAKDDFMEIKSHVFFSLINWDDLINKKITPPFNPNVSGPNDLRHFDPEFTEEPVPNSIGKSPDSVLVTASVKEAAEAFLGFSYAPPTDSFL
# T2 sequence (Q14012 whole entry): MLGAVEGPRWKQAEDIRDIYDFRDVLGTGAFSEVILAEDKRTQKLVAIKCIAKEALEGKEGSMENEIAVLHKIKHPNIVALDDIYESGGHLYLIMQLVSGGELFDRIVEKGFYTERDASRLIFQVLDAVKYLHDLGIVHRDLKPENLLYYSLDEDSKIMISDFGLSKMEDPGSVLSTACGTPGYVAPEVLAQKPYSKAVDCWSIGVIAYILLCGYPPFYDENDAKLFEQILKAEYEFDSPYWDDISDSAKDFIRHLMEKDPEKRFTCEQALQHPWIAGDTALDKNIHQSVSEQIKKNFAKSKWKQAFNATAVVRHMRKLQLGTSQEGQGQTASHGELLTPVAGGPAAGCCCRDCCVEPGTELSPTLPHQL
# T7 sequence (P53350 whole entry): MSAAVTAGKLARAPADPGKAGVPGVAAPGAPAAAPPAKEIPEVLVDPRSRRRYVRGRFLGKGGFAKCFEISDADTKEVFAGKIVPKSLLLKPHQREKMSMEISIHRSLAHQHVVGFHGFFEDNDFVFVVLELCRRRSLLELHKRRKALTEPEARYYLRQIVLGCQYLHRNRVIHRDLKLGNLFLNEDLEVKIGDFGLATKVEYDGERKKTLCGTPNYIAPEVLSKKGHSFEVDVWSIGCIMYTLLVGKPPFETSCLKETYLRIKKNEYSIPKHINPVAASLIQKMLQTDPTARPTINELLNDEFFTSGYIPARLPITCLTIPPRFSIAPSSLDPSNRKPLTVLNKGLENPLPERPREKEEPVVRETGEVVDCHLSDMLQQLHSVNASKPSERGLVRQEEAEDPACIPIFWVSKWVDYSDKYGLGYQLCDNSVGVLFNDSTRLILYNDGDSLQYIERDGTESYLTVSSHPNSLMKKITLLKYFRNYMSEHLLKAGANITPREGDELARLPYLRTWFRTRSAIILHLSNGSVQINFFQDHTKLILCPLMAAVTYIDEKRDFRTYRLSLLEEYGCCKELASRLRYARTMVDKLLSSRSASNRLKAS
# Sequence of PBK (Q96KB5 whole entry): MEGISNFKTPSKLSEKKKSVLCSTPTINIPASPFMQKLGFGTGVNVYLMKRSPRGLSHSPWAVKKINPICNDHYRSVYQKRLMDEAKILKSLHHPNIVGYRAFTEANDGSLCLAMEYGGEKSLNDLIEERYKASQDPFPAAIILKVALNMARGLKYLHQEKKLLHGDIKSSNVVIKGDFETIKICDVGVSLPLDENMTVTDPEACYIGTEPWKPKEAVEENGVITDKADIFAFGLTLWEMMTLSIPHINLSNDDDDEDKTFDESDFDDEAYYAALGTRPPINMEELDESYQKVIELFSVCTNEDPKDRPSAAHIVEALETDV
# T4 sequence (Q13188 whole entry): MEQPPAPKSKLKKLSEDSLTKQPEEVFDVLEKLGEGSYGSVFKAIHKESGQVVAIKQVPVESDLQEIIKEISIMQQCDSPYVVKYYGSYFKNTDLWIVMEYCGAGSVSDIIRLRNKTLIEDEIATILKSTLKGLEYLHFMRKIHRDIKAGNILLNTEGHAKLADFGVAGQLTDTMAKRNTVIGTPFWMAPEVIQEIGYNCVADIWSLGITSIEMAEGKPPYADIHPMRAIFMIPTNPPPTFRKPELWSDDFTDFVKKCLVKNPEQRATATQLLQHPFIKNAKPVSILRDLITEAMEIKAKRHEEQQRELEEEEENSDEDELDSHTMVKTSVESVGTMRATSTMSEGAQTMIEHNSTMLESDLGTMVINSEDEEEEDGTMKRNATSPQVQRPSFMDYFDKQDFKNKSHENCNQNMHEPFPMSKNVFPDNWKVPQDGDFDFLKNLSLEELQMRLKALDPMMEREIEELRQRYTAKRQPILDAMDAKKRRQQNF
# T1 sequence (P51812 whole entry): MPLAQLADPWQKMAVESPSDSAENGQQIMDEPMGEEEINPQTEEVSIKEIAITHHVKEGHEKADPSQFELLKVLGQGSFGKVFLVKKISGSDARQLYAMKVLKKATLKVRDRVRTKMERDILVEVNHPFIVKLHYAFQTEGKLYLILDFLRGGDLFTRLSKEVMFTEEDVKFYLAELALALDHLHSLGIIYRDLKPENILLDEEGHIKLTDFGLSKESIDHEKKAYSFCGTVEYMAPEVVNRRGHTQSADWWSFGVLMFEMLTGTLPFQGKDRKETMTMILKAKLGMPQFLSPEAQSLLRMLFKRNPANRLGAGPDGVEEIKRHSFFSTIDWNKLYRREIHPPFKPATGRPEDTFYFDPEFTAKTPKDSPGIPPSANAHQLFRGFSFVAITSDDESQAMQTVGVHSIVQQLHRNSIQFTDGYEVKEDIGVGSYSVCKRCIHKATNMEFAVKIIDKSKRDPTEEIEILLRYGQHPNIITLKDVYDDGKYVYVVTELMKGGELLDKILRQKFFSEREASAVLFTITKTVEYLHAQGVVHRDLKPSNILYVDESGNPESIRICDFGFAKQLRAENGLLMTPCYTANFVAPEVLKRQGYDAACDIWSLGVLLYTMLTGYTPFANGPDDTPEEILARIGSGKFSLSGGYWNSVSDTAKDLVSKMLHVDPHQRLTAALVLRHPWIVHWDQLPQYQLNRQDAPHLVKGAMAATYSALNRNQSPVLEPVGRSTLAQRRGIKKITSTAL
# Sequence of AKT2 (P31751 whole entry): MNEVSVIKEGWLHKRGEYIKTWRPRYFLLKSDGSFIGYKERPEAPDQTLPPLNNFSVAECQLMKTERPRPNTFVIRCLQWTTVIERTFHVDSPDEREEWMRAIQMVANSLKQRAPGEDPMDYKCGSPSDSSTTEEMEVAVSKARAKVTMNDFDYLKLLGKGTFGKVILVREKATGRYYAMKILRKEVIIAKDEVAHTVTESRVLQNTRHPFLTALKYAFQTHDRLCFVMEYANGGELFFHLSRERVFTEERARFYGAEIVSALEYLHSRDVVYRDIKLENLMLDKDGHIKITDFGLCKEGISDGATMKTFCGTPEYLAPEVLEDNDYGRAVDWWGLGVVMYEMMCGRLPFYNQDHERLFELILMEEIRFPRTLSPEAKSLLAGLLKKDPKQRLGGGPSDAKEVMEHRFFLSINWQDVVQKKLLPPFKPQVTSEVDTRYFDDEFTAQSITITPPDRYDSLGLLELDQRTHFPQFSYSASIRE
# Sequence of mouse LCK (P06240 whole entry): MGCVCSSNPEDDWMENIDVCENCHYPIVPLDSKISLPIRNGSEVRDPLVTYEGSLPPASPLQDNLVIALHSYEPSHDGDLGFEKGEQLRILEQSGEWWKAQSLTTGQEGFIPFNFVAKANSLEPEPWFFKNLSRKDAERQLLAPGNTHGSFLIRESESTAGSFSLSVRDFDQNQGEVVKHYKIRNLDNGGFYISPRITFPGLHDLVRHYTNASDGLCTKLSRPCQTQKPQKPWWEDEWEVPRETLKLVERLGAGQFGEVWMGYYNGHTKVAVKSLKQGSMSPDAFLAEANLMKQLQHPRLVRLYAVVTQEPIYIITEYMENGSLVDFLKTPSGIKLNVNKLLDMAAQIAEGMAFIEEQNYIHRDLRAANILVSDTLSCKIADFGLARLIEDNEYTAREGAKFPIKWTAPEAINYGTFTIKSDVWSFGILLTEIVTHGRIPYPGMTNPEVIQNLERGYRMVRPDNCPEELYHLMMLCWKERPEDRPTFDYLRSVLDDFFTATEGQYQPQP
# T8 sequence (Q63531 whole entry): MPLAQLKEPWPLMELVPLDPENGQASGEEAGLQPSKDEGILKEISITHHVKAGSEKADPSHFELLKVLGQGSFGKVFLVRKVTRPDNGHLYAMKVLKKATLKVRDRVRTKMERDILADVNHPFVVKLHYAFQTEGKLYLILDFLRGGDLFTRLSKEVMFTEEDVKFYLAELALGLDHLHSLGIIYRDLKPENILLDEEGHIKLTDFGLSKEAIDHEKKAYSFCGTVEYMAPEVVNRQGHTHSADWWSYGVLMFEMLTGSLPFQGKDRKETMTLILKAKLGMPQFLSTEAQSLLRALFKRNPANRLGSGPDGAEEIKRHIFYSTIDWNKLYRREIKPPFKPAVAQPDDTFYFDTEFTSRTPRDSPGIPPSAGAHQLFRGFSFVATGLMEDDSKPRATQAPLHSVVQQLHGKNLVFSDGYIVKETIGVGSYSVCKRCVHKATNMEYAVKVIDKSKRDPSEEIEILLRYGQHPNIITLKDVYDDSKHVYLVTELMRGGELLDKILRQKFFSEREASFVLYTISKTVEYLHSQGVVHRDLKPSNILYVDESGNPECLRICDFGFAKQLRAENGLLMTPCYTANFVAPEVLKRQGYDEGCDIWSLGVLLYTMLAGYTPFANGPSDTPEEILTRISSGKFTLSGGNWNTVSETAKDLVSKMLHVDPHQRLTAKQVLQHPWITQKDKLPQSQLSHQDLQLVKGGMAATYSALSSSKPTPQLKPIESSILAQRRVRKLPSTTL
inhibition at 1 µM (ZAP70),inhibition at 1 µM (RSK2),inhibition at 1 µM (CaMK1a),inhibition at 1 µM (CSK),inhibition at 1 µM (PBK),inhibition at 1 µM (mouse LCK),inhibition at 1 µM (MLCK),inhibition at 1 µM (MST2),inhibition at 1 µM (MNK2),inhibition at 1 µM (rat MNB),inhibition at 1 µM (PLK1preactivated),inhibition at 1 µM (AKT2),inhibition at 1 µM (rat RSK1),inhibition at 1 µM (SGK),inhibition at 1 µM (DYRK2),SMILES
3%,,,,,,,,,,,,,,,"OCCn1cc(-c2cnc3nnn(Cc4ccc5ncccc5c4)c3n2)cn1 [METi, PF-04217903]"
,30%,18%,-4%,-2%,22%,22%,63%,12%,4%,64%,28%,29%,4%,23%,"N#CCCNc1nccc(-c2cn(CC(F)F)nc2-c2cnc3[nH]ccc3c2)n1 [RAFi, PF-04880594]"
